Measured values published in article PMC3652823 (PLoS ONE, 2013).
Where two headings read alike, the source gives them in different places.

Experiments:
[1] = in vivo; settings: male, SD, rat, po
[2] = rat, in vivo, po, cited from earlier work
[3] = rat, in vivo, po; cited from earlier work
[4] = molecular target: protein kinase C (PKCα); set-up: method as in earlier work; settings: read-out: IC50, inhibition of protein kinase C (PKCα); cited from earlier work
[5] = set-up: method as in Gao et al. (2008) [16]; settings: in situ loop method in rats; ref Gao et al. (2008) [16]; cited from earlier work
[6] = test system: influenza virus strain, A/PR8/34(H1N1); assay: Antiviral effect of serum after oral administration on influenza virus in MDCK cells (MTT); type: cell-based; settings: COS 25 mg/kg, ribavirin 20 mg/kg, MTT after 48 h
[7] = test system: Caco-2 cell monolayers; type: in vitro ADME, human
Experimental: Caco-2 cells were cultured in high glucose DMEM with 10% fetal bovine serum, 1% nonessential amino acids. Cells were cultured in a humidified atmosphere of 5% CO2 at 37°C. After reaching 80% confluens, Caco-2 cells were harvested with 0.05% trypsin-EDTA solution and seeded on top of CC inserts in 6-well plates, which has a surface area of 4.2 cm^2, at a density of 1.0×10^5 cells/cm^2. The protocols for cell culture in Transwell inserts were similar to those described previously.
Hank’s balanced salt solution (HBSS) was used as the transport buffer for the transport study in Caco-2 cell monolayer model. It was prepared by dissolving 9.5 grams of commercial available HBSS powder in 1000 mL water. The pH value of the buffer was adjusted to pH 6.0 by 85% of phosphoric acid.
Cell culture experiments were described previously. Briefly, after culture medium was aspirated, the cell monolayers were washed three times with blank HBSS. The transepithelial electrical resistance (TEER) values of cell monolayers were measured, which were more than […]. The monolayers were incubated with the blank HBSS for 1 h with 37°C. Thereafter the incubation medium was aspirated. […] The amounts of transported compound were measured as a function of time by UPLC-MS method described previously. […] At the end of the transport experiment, integrity of the monolayer was monitored by TEER value.

[8] = rat, in vivo, po
[9] = test system: GI membrane; assay: GI membrane toxicity by morphological observation; type: in vivo, rat; settings: rats, oral, COS 25 mg/kg
Experimental: After in vivo pharmacokinetics experiments were carried out for 8 h, the GI was wash with HBSS (pH 7.4) and the segments were removed and immersed in the 4% neutral paraform aldehyde buffer and fixed. Vertical sections were prepared, stained with hematoxylin-eosin, and examined by light microscopy. To be able to describe possible changes in the structure of the tissue, tissues were studied and evaluated for morphological changes using the following parameters: Measurement of the distance between the nucleus and the apical membrane in enterocytes with a measuring-rod. Five measurements in each villus and five villi were measured in each slide. The villi were randomly chosen and measurements were all conducted at the tips of the villi. Villus index was used for duodenum, jejunum and ileum and crypt index for colon. Measurement of height (villi) or depth (crypt) and width (one-half of height or depth) was done with a measuring-rod of five villi/crypts in each slide that were randomly chosen. Height/depth was divided with width to receive the index.

O=C(/C=C/c1ccc(O)c(O)c1)O[C@@H]1C[C@](O)(C(=O)O)C[C@@H](O)[C@H]1O [CHA, Chlorogenic acid]
AUC(0-t) [1]: 144 ng·h/mL | T 1/2z ([2]; 60 mg/kg): 1.05 h | T 1/2λz [3]: 3.63 h | T max [3]: 0.75 h | absolute bioavailability orally [3]: about 0.69%

C[C@@H]1O[C@@H](OC[C@H]2O[C@@H](OCCc3ccc(O)c(O)c3)[C@H](O)[C@@H](O)[C@@H]2OC(=O)/C=C/c2ccc(O)c(O)c2)[C@H](O)[C@H](O)[C@H]1O [FTA, forsythoside A]
IC50 [4]: 1900 nM | AUC(0-t) [1]: 28.5 ng·h/mL | T 1/2λz ([2]; 100 mg/kg): 1.24 h | T 1/2λz [3]: 6.72 h | T max [3]: 0.75 h | absolute bioavailability orally [3]: ~0.72%

N[C@H]1[C@H](O[C@H]2[C@H](O)[C@@H](N)[C@H](O[C@H]3[C@H](O)[C@@H](N)[C@H](O[C@H]4[C@H](O)[C@@H](N)[C@H](O[C@H]5[C@H](O)[C@@H](N)[C@H](O[C@H]6[C@H](O)[C@@H](N)C(O)O[C@@H]6CO)O[C@@H]5CO)O[C@@H]4CO)O[C@@H]3CO)O[C@@H]2CO)O[C@H](CO)[C@@H](O)[C@@H]1O (some centres unmarked) [chitosan hexamer]
increase of the bioavailability of insulin and FDs [5]: about 2.5 times

NC(=O)c1ncn([C@@H]2O[C@H](CO)[C@@H](O)[C@H]2O)n1 [ribavirin]
inhibition rate on influenza virus compared with PBS group [6]: remarkable increase

Chito-oligosaccharide [COS]
effect on the P app-value for FTA and CHA compared to the control group [7]: significant, concentration-dependent increase | CHA AUC0-480 min ([8]; 12.5 mg/kg): 52938.0±3520.0 ng⋅min/mL | FTA AUC0-480 min ([8]; 12.5 mg/kg): 2874.7±564.9 ng⋅min/mL | CHA AUC0-480 min ([8]; 25 mg/kg): 296980.0±36456.0 ng⋅min/mL | FTA AUC0-480 min ([8]; 25 mg/kg): 6286.0±1329.7 ng⋅min/mL | CHA AUC0-480 min ([8]; 50 mg/kg): 152641.5±72581.0 ng⋅min/mL | FTA AUC0-480 min ([8]; 50 mg/kg): 3143.0±572.1 ng⋅min/mL

Triton X-100
Nucleo-apical distance ([9]; duodenum, jejunum and ileum, Triton X-100 200 mg/kg, vs PBS group): remarkable decrease | villi/crypt index ([9]; duodenum, jejunum, ileum and colon, Triton X-100 200 mg/kg, vs PBS group): remarkable decrease | morphology of the GI membrane (HE sections: stomach, jejunum, colon) ([9]; Triton X-100 200 mg/kg as positive control): could cause mucosal damage seriously
